# Source: article PMC9331182, “Characterization of a novel recombinant halophilic β-glucosidase of Trichoderma harzianum derived from Hainan mangrove” (BMC Microbiology, 2022)
# Tested on: T1, Bgl3HB
# T1 construct: pPICZalphaA (alpha-factor secretion) in Komagataella phaffii X33; by primers starts MVNNAA and ends QIQDATP plus C-terminal His6; GH3, GH3-C and Fn3-like domains
# Assay: pNP release, OD400, Lineweaver-Burk
# Assay type: biochemical, Trichoderma harzianum
# Conditions: pH 4.0, 50 °C, 10 min
# From the text: pNP release, OD400, Lineweaver-Burk on Bgl3HB
structure (smiles),measurement,value
O=[N+]([O-])c1ccc(O[C@@H]2O[C@H](CO)[C@@H](O)[C@H](O)[C@H]2O)cc1 [pNPG],Km,1220 µM
